In patent US11149033B2, “Heteroaryl compound, enantiomer, diastereomer or pharmaceutically acceptable salt thereof, and antiviral composition containing same as active ingredient” (priority 2016, dated 2021):

Experiments:
B/Florida/04/2006 = assay: Antiviral activity (drug efficacy evaluation by concentration) against B/Florida/04/2006; format: cell-based, B type influenza virus
[1] = test system: A/California/07/2009 (H1N1); assay: Antiviral activity (drug efficacy evaluation by concentration) against A/California/07/2009 (H1N1); format: cell-based, A type influenza virus; details: Influenza A virus, H1N1; read-out: EC50
A/Perth/16/2009 (H3N2) = assay: Antiviral activity (drug efficacy evaluation by concentration) against A/Perth/16/2009 (H3N2); format: cell-based, A type influenza virus; details: Influenza A virus, H3N2; read-out: EC50
[2] = CC50, third EC50/CC50 column pair (c7), beside the EC50 of c6

Row | Compound | EC50 (B/Florida/04/2006) | EC50 [1] | EC50 (A/Perth/16/2009 (H3N2)) | CC50 (in vitro; CC50, beside the EC50 of c2) | CC50 (in vitro; CC50, beside the EC50 of c4) | CC50 (in vitro; [2]) | melting point
1 | Brc1ccc(Nc2nnc(CCc3ccccc3-c3ccccc3)o2)cc1 [Compound 118, 5-(2-([1,1′-biphenyl]-2-yl)ethyl)-N-(4-bromophenyl)-1,3,4-oxadiazol-2-amine] | > 50 µM | 43.9 µM | > 50 µM | > 50 µM | > 50 µM | > 50 µM | 
2 | Brc1ccc(Cc2nnc(CCc3ccccc3-c3ccccc3)o2)cc1 [Compound 119, 2-(2-([1,1′-biphenyl]-2-yl)ethyl)-5-(4-bromobenzyl)-1,3,4-oxadiazole] | > 50 µM | > 50 µM | > 50 µM | > 50 µM | > 50 µM | > 50 µM | 
3 | CC(C)c1ccc(Cc2nnc(/C=C/c3ccccc3C(C)C)o2)cc1 [Compound 133, 2-(4-isopropylbenzyl)-5-(2-isopropylstyryl)-1,3,4-oxadiazole] | 1.97 µM | 2.66 µM | 1.4 µM | > 50 µM | > 50 µM | > 50 µM | 
4 | Cc1cccc(C)c1CCc1nnc(Cc2ccc(Br)cc2)o1 [Compound 135, 2-(4-bromobenzyl)-5-(2,6-dimethylphenethyl)-1,3,4-oxadiazole] | 5.63 µM | 6.4 µM | 4.38 µM | > 50 µM | > 50 µM | > 50 µM | 
5 | Cc1ccccc1CC(C)c1nnc(Cc2ccc(Br)cc2)o1 (stereo not drawn) [Compound 140, 2-(4-bromobenzyl)-5-(1-(o-tolyl)propan-2-yl)-1,3,4-oxadiazole] | 14.1 µM | 18.2 µM | 19.9 µM | > 50 µM | > 50 µM | > 50 µM | 
6 | C/C(=C\c1ccccc1C)c1nnc(Cc2ccc(Br)cc2)o1 [Compound 144, 2-(4-bromobenzyl)-5-(1-(o-tolyl)prop-1-en-2-yl)-1,3,4-oxadiazole] | > 50 µM | 48.7 µM | 49.3 µM | > 50 µM | > 50 µM | > 50 µM | 
7 | Cc1ccc(Cc2nnc(/C=C/c3ccccc3C(C)C)o2)cc1C [Compound 146, 2-(3,4-dimethylbenzyl)-5-(2-isopropylstyryl)-1,3,4-oxadiazole] | 3.07 µM | 5.27 µM | 3.74 µM | 24.1 µM | > 50 µM | > 50 µM | 
8 | CC(C)c1ccccc1/C=C/c1nnc(C(C)c2ccccc2)o1 (stereo not drawn) [Compound 147, 2-(2-isopropylstyryl)-5-(1-phenylethyl)-1,3,4-oxadiazole] | 4.4 µM | 6 µM | 6 µM | > 50 µM | > 50 µM | > 50 µM | 
9 | CC(C)Cc1ccc(C(C)c2nnc(/C=C/c3ccccc3C(C)C)o2)cc1 (stereo not drawn) [Compound 148, 2-(1-(4-isobutylphenyl)ethyl)-5-(2-isopropylstyryl)-1,3,4-oxadiazole] | 45.1 µM | 39.8 µM | 38.9 µM | > 50 µM | > 50 µM | > 50 µM | 
10 | COc1ccccc1/C=C/c1nnc(Cc2ccc(Br)cc2)o1 [Compound 163, 2-(4-bromobenzyl)-5-(2-methoxystyryl)-1,3,4-oxadiazole] | > 50 µM | 32.3 µM |  | > 50 µM | > 50 µM | > 50 µM | 106.3 °C
11 | CC(C)c1ccccc1/C=C/c1nnc(Cc2ccc(Br)c(F)c2)o1 [Compound 164, 2-(4-bromo-3-fluorobenzyl)-5-(2-isopropylstyryl)-1,3,4-oxadiazole] | 8.35 µM | 5.16 µM | 4.32 µM | > 50 µM | > 50 µM | > 50 µM | 
12 | Cc1ccc(F)c(Cc2nnc(/C=C/c3ccccc3C(C)C)o2)c1 [Compound 173, 2-(2-fluoro-5-methylbenzyl)-5-(2-isopropylstyryl)-1,3,4-oxadiazole] | 1.91 µM | 1.77 µM | 1.71 µM | 13.5 µM | 12.6 µM | 15.8 µM | 
13 | Cc1ccc(/C=C/c2nnc(Cc3cccc(Br)c3)o2)c(Cl)c1 [Compound 195, 2-(3-bromobenzyl)-5-(2-chloro-4-methylstyryl)-1,3,4-oxadiazole] | 5.74 µM | 6.14 µM | 5.79 µM | > 50 µM | > 50 µM | > 50 µM | 
14 | Fc1ccc(/C=C/c2nnc(Cc3cncc(Br)c3)o2)c(Cl)c1 [Compound 205, (E)-2-((5-bromopyridin-3-yl)methyl)-5-(2-chloro-4-fluorostyryl)-1,3,4-oxadiazole] | 34.9 µM | 43 µM | 21.6 µM | > 50 µM | > 50 µM | > 50 µM | 
15 | COc1ccccc1/C=C/c1nnc(Cc2cccc(Br)c2)o1 [Compound 210, 2-(3-bromobenzyl)-5-(2-methoxystyryl)-1,3,4-oxadiazole] | 36.2 µM | 47.3 µM | 23.5 µM | 48.1 µM | 48.1 µM | 46.8 µM | 
